In patent publication US20210045385A1, “PYRIDAZINONE-SUBSTITUTED KETOXIMES AS HERBICIDES” (FMC Corporation, priority 2018, published 2021):

Assays:
Assay type in all cases: in vivo
[1] = system: ducksalad (Heteranhera limosa); assay: Test B flooded paddy test, visual plant response rating; conditions: 250 g ai/ha, Flood, applied to paddy water, 2-leaf stage, evaluated after 13 to 15 days
Summary of the method: (§1)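 Greenhouse paddy conditions applied: two-leaf plants, a 3 cm flood above the soil surface maintained throughout, and compound added to the water rather than the foliage. Plants were judged visually against controls at 13 to 15 days.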

[2] = system: sedge, umbrella (small-flower umbrella sedge, Cyperus difformis); assay: as above; conditions: 250 g ai/ha, Flood, applied to paddy water, 2-leaf stage, evaluated after 13 to 15 days
Summary of the method: as §1

[3] = system: barnyardgrass (Echinochloa crus-galli); assay: as above; conditions: 250 g ai/ha, Flood, applied to paddy water, 2-leaf stage, evaluated after 13 to 15 days
Summary of the method: as §1

rice (Oryza sativa) = assay: as above; conditions: 250 g ai/ha, Flood, applied to paddy water, 2-leaf stage, evaluated after 13 to 15 days
Summary of the method: as §1

kochia (Kochia scoparia) [4] = assay: Test A postemergence, visual plant response rating; conditions: for Kochia plant response rating (0 to 100 scale): 500 g ai/ha, postemergence, 0 is no effect, 100 is complete control; for Kochia plant response rating: Postemergence, 125 g ai/ha, 0 to 100 scale (0 no effect, 100 complete control)
Summary of the method: (§2)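 Greenhouse pot test in loam–sand soil mix: compound in a surfactant-containing non-phytotoxic solvent applied preemergence (directed soil spray) or postemergence (one- to two-leaf plants, 2–10 cm). Injury scored visually after ~10 days, 0–100.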

[5] = system: blackgrass (Alopecurus myosuroides); assay: Test A postemergence, visual plant response rating; conditions: for Blackgrass plant response rating (0 to 100 scale): 500 g ai/ha, postemergence, 0 is no effect, 100 is complete control; for Blackgrass plant response rating: Postemergence, 125 g ai/ha, 0 to 100 scale (0 no effect, 100 complete control)
Summary of the method: as §2

[6] = system: galium (catchweed bedstraw, Galium aparine); assay: Test A postemergence, visual plant response rating; conditions: for Galium plant response rating (0 to 100 scale): 500 g ai/ha, postemergence, 0 is no effect, 100 is complete control; for Galium plant response rating: Postemergence, 125 g ai/ha, 0 to 100 scale (0 no effect, 100 complete control)
Summary of the method: as §2

[7] = system: pigweed (Amaranthus retroflexus); assay: Test A postemergence, visual plant response rating; conditions: for Pigweed plant response rating (0 to 100 scale): 500 g ai/ha, postemergence, 0 is no effect, 100 is complete control; for Pigweed plant response rating: Postemergence, 125 g ai/ha, 0 to 100 scale (0 no effect, 100 complete control)
Summary of the method: as §2

[8] = system: barnyardgrass (Echinochloa crus-galli); assay: Test A postemergence, visual plant response rating; conditions: for Barnyardgrass plant response rating (0 to 100 scale): 500 g ai/ha, postemergence, 0 is no effect, 100 is complete control; for Barnyardgrass plant response rating: Postemergence, 125 g ai/ha, 0 to 100 scale (0 no effect, 100 complete control)
Summary of the method: as §2

corn (Zea mays) = assay: Test A postemergence, visual plant response rating; conditions: for Corn plant response rating (0 to 100 scale): 500 g ai/ha, postemergence, 0 is no effect, 100 is complete control; for Corn plant response rating: Postemergence, 125 g ai/ha, 0 to 100 scale (0 no effect, 100 complete control)
Summary of the method: as §2

[9] = system: wheat (Triticum aestivum); assay: Test A postemergence, visual plant response rating; conditions: for Wheat plant response rating (0 to 100 scale): 500 g ai/ha, postemergence, 0 is no effect, 100 is complete control; for Wheat plant response rating: Postemergence, 125 g ai/ha, 0 to 100 scale (0 no effect, 100 complete control)
Summary of the method: as §2

[10] = system: foxtail, giant (giant foxtail, Setaria faberii); assay: Test A postemergence, visual plant response rating; conditions: for Foxtail, Giant plant response rating (0 to 100 scale): 500 g ai/ha, postemergence, 0 is no effect, 100 is complete control; for Foxtail, Giant plant response rating: Postemergence, 125 g ai/ha, 0 to 100 scale (0 no effect, 100 complete control)
Summary of the method: as §2

[11] = system: ragweed (common ragweed, Ambrosia elatior); assay: Test A postemergence, visual plant response rating; conditions: for Ragweed plant response rating (0 to 100 scale): 500 g ai/ha, postemergence, 0 is no effect, 100 is complete control; for Ragweed plant response rating: Postemergence, 125 g ai/ha, 0 to 100 scale (0 no effect, 100 complete control)
Summary of the method: as §2

[12] = system: Italian ryegrass (Lolium multiflorum); assay: Test A postemergence, visual plant response rating; conditions: for Ryegrass, Italian plant response rating (0 to 100 scale): 500 g ai/ha, postemergence, 0 is no effect, 100 is complete control; for Ryegrass, Italian plant response rating: Postemergence, 125 g ai/ha, 0 to 100 scale (0 no effect, 100 complete control)
Summary of the method: as §2

kochia (Kochia scoparia) [13] = assay: Test A preemergence, visual plant response rating; conditions: for Kochia plant response rating: 125 g ai/ha, preemergence, 0 to 100 scale, 0 no effect, 100 complete control; for Kochia plant response rating (0 to 100 scale): 500 g ai/ha Preemergence, approx. 10 days
Summary of the method: as §2

[14] = system: pigweed (Amaranthus retroflexus); assay: Test A preemergence, visual plant response rating; conditions: for Pigweed plant response rating: 125 g ai/ha, preemergence, 0 to 100 scale, 0 no effect, 100 complete control; for Pigweed plant response rating (0 to 100 scale): 500 g ai/ha Preemergence, approx. 10 days
Summary of the method: as §2

[15] = system: barnyardgrass (Echinochloa crus-galli); assay: Test A preemergence, visual plant response rating; conditions: for Barnyardgrass plant response rating: 125 g ai/ha, preemergence, 0 to 100 scale, 0 no effect, 100 complete control; for Barnyardgrass plant response rating (0 to 100 scale): 500 g ai/ha Preemergence, approx. 10 days
Summary of the method: as §2

[16] = system: foxtail, giant (giant foxtail, Setaria faberii); assay: Test A preemergence, visual plant response rating; conditions: for Foxtail, Giant plant response rating: 125 g ai/ha, preemergence, 0 to 100 scale, 0 no effect, 100 complete control; for Foxtail, Giant plant response rating (0 to 100 scale): 500 g ai/ha Preemergence, approx. 10 days
Summary of the method: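 Ratings use a 0–100 visual scale (100 = complete control) against untreated controls, scored about 10 days after greenhouse treatment. Test chemicals were formulated in surfactant-containing non-phytotoxic solvent and applied either as soil spray after planting (preemergence) or onto one- to two-leaf, 2–10 cm plants (postemergence).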

[17] = system: ragweed (common ragweed, Ambrosia elatior); assay: Test A preemergence, visual plant response rating; conditions: for Ragweed plant response rating: 125 g ai/ha, preemergence, 0 to 100 scale, 0 no effect, 100 complete control; for Ragweed plant response rating (0 to 100 scale): 500 g ai/ha Preemergence, approx. 10 days
Summary of the method: as §2

[18] = system: Italian ryegrass (Lolium multiflorum); assay: Test A preemergence, visual plant response rating; conditions: for Ryegrass, Italian plant response rating: 125 g ai/ha, preemergence, 0 to 100 scale, 0 no effect, 100 complete control; for Ryegrass, Italian plant response rating (0 to 100 scale): 500 g ai/ha Preemergence, approx. 10 days
Summary of the method: as §2

SMILES: CO/N=C(/c1cc(Cl)ccc1C(F)(F)F)c1c(O)c(C)nn(C)c1=O [Compound 95]
- Plant response rating, Ducksalad (0 to 100 scale, 0 is no effect, 100 is complete control) [1]: 0
- Plant response rating, Sedge, Umbrella (0 to 100 scale, 0 is no effect, 100 is complete control) [2]: 0
- Plant response rating, Barnyardgrass (0 to 100 scale, 0 is no effect, 100 is complete control) [3]: 0
- Plant response rating, Rice (0 to 100 scale, 0 is no effect, 100 is complete control) (rice (Oryza sativa)): 0
- Kochia plant response rating (0 to 100 scale) (kochia (Kochia scoparia) [4]): 80
- Kochia plant response rating (kochia (Kochia scoparia) [4]): 60
- Blackgrass plant response rating (0 to 100 scale) [5]: 100
- Blackgrass plant response rating [5]: 60
- Galium plant response rating (0 to 100 scale) [6]: 90
- Galium plant response rating [6]: 80
- Pigweed plant response rating (0 to 100 scale) [7]: 80
- Pigweed plant response rating [7]: 70
- Barnyardgrass plant response rating (0 to 100 scale) [8]: 60
- Barnyardgrass plant response rating [8]: 50
- Corn plant response rating (0 to 100 scale) (corn (Zea mays)): 40
- Corn plant response rating (corn (Zea mays)): 0
- Wheat plant response rating (0 to 100 scale) [9]: 70
- Wheat plant response rating [9]: 40
- Foxtail, Giant plant response rating (0 to 100 scale) [10]: 80
- Foxtail, Giant plant response rating [10]: 60
- Ragweed plant response rating (0 to 100 scale) [11]: 90
- Ragweed plant response rating [11]: 80
- Ryegrass, Italian plant response rating (0 to 100 scale) [12]: 100
- Ryegrass, Italian plant response rating [12]: 80
- Kochia plant response rating (kochia (Kochia scoparia) [13]): 10
- Kochia plant response rating (0 to 100 scale) (kochia (Kochia scoparia) [13]): 70
- Pigweed plant response rating [14]: 50
- Pigweed plant response rating (0 to 100 scale) [14]: 100
- Barnyardgrass plant response rating [15]: 60
- Barnyardgrass plant response rating (0 to 100 scale) [15]: 60
- Foxtail, Giant plant response rating [16]: 80
- Foxtail, Giant plant response rating (0 to 100 scale) [16]: 100
- Ragweed plant response rating [17]: 30
- Ragweed plant response rating (0 to 100 scale) [17]: 100
- Ryegrass, Italian plant response rating [18]: 90
- Ryegrass, Italian plant response rating (0 to 100 scale) [18]: 100

SMILES: CCO/N=C(\c1c(O)c(C)nn(C)c1=O)c1cccc2ccccc12 [Compound 79]
- Plant response rating, Ducksalad (0 to 100 scale, 0 is no effect, 100 is complete control) [1]: 0
- Plant response rating, Sedge, Umbrella (0 to 100 scale, 0 is no effect, 100 is complete control) [2]: 0
- Plant response rating, Barnyardgrass (0 to 100 scale, 0 is no effect, 100 is complete control) [3]: 0
- Plant response rating, Rice (0 to 100 scale, 0 is no effect, 100 is complete control) (rice (Oryza sativa)): 0
- Kochia plant response rating (0 to 100 scale) (kochia (Kochia scoparia) [4]): 80
- Kochia plant response rating (kochia (Kochia scoparia) [4]): 70
- Blackgrass plant response rating (0 to 100 scale) [5]: 80
- Blackgrass plant response rating [5]: 70
- Galium plant response rating (0 to 100 scale) [6]: 100
- Galium plant response rating [6]: 90
- Pigweed plant response rating (0 to 100 scale) [7]: 90
- Pigweed plant response rating [7]: 80
- Barnyardgrass plant response rating (0 to 100 scale) [8]: 90
- Barnyardgrass plant response rating [8]: 40
- Corn plant response rating (0 to 100 scale) (corn (Zea mays)): 20
- Corn plant response rating (corn (Zea mays)): 10
- Wheat plant response rating (0 to 100 scale) [9]: 0
- Wheat plant response rating [9]: 0
- Foxtail, Giant plant response rating (0 to 100 scale) [10]: 80
- Foxtail, Giant plant response rating [10]: 60
- Ragweed plant response rating (0 to 100 scale) [11]: 100
- Ragweed plant response rating [11]: 90
- Ryegrass, Italian plant response rating (0 to 100 scale) [12]: 30
- Ryegrass, Italian plant response rating [12]: 30
- Kochia plant response rating (kochia (Kochia scoparia) [13]): 10
- Kochia plant response rating (0 to 100 scale) (kochia (Kochia scoparia) [13]): 70
- Pigweed plant response rating [14]: 30
- Pigweed plant response rating (0 to 100 scale) [14]: 100
- Barnyardgrass plant response rating [15]: 70
- Barnyardgrass plant response rating (0 to 100 scale) [15]: 80
- Foxtail, Giant plant response rating [16]: 60
- Foxtail, Giant plant response rating (0 to 100 scale) [16]: 90
- Ragweed plant response rating [17]: 90
- Ragweed plant response rating (0 to 100 scale) [17]: 100
- Ryegrass, Italian plant response rating [18]: 30
- Ryegrass, Italian plant response rating (0 to 100 scale) [18]: 60

SMILES: CON=C(c1cccc(C(F)(F)F)c1Cl)c1c(O)c(C)nn(C)c1=O [Compound 102]
- Plant response rating, Ducksalad (0 to 100 scale, 0 is no effect, 100 is complete control) [1]: 0
- Plant response rating, Sedge, Umbrella (0 to 100 scale, 0 is no effect, 100 is complete control) [2]: 0
- Plant response rating, Barnyardgrass (0 to 100 scale, 0 is no effect, 100 is complete control) [3]: 0
- Plant response rating, Rice (0 to 100 scale, 0 is no effect, 100 is complete control) (rice (Oryza sativa)): 0
- Kochia plant response rating (0 to 100 scale) (kochia (Kochia scoparia) [4]): 20
- Kochia plant response rating (kochia (Kochia scoparia) [4]): 20
- Blackgrass plant response rating (0 to 100 scale) [5]: 30
- Blackgrass plant response rating [5]: 0
- Galium plant response rating (0 to 100 scale) [6]: 70
- Galium plant response rating [6]: 40
- Pigweed plant response rating (0 to 100 scale) [7]: 40
- Pigweed plant response rating [7]: 20
- Barnyardgrass plant response rating (0 to 100 scale) [8]: 30
- Barnyardgrass plant response rating [8]: 20
- Corn plant response rating (0 to 100 scale) (corn (Zea mays)): 0
- Corn plant response rating (corn (Zea mays)): 0
- Wheat plant response rating (0 to 100 scale) [9]: 30
- Wheat plant response rating [9]: 0
- Foxtail, Giant plant response rating (0 to 100 scale) [10]: 30
- Foxtail, Giant plant response rating [10]: 10
- Ragweed plant response rating (0 to 100 scale) [11]: 30
- Ragweed plant response rating [11]: 10
- Ryegrass, Italian plant response rating (0 to 100 scale) [12]: 30
- Ryegrass, Italian plant response rating [12]: 0
- Kochia plant response rating (kochia (Kochia scoparia) [13]): 0
- Kochia plant response rating (0 to 100 scale) (kochia (Kochia scoparia) [13]): 0
- Pigweed plant response rating [14]: 0
- Pigweed plant response rating (0 to 100 scale) [14]: 10
- Barnyardgrass plant response rating [15]: 0
- Barnyardgrass plant response rating (0 to 100 scale) [15]: 40
- Foxtail, Giant plant response rating [16]: 0
- Foxtail, Giant plant response rating (0 to 100 scale) [16]: 30
- Ragweed plant response rating [17]: 20
- Ragweed plant response rating (0 to 100 scale) [17]: 40
- Ryegrass, Italian plant response rating [18]: 20
- Ryegrass, Italian plant response rating (0 to 100 scale) [18]: 50
